Values quoted from earlier work as cited in US20080253985A1, “Compositions for Lowering Serum Cholesterol and/or Triglycerides” (priority 2005, published 2008).
Read-outs that look alike come from different tables or passages of the source.

Key:
[1] = dose of 40 mg
[2] = hoFH patients; ezetimibe 10 mg/day added to atorvastatin or simvastatin 80 mg/day
[3] = clinical studies, dosages of 80 mg/day or greater

O=C(NC1CCN(CCCCC2(C(=O)NCC(F)(F)F)c3ccccc3-c3ccccc32)CC1)c1ccccc1-c1ccc(C(F)(F)F)cc1 [BMS-201038, N-(2,2,2-Trifluorethyl)-9-[4-[4-[[[4′-(trifluoromethyl)[1,1′biphenyl]-2-Yl]carbonyl]amino]-1-piperidinyl]butyl]9H-fluorene-9-carboxamide]
adverse events (patients treated with 25 mg/day): gastrointestinal disturbances, abnormalities in liver function, and hepatic steatosis

CC(C)c1c(C(=O)Nc2ccccc2)c(-c2ccccc2)c(-c2ccc(F)cc2)n1CCC(O)CC(O)CC(=O)O (centres unmarked) [atorvastatin, 7-[2-(4-fluorophenyl)-5-(1-methylethyl)-3-phenyl-4-(phenylcarbamoyl)-1H-pyrrol-1-yl]-3,5-dihydroxy-heptanoic acid]
patients achieving goal attainment, LDL <70 mg/dL [1]: 23%

O=C1[C@H](CC[C@H](O)c2ccc(F)cc2)[C@@H](c2ccc(O)cc2)N1c1ccc(F)cc1 [ezetimibe]
total reduction of LDL-C levels [2]: 27%

Cc1cc(C)c2c3ccccc3n(Cc3ccc([C@@H](C(=O)N[C@H](CO)c4ccccc4)C4CCCC4)cc3)c2n1 [implitapide, (2S)-2-cyclopentyl-2-[4-[(2,4-dimethyl-9H-pyrido[2,3-b]indol-9-yl)methyl]phenyl]-N-[(1S)-2-hydroxy-1-phenylethyl]ethanamide]
adverse events [3]: gastrointestinal disturbances, abnormalities in liver function, and hepatic steatosis
therapeutic efficacy [3]: therapeutically effective
